Assay results published in patent US7598250B2, “Cyclic amine BACE-1 inhibitors having a heterocyclic substituent” (Schering Corporation, priority 2003, dated 2009).

Target: T1, sproBACE1 (soluble human BACE1) (Homo sapiens, UniProt P56817)
T1 construct: sBACE1, corresponding to amino acids 1-454; made in house; host or cells: Sf9 insect cells (baculovirus), secreted into the medium
Assay: Peptide Hydrolysis Assay (HTRF, EuK-biotin labeled APPsw substrate)
Assay type: biochemical
Settings: 7 nM sproBACE1, APPsw substrate, pH 5.0, 3 hr at 30° C., HTRF 665/620 ratio
Source text: A predicted soluble form of human BACE1 (sBACE1, corresponding to amino acids 1-454) was generated from the full length BACE1 cDNA (full length human BACE1 cDNA in pCDNA4/mycHisA construct; University of Toronto) by PCR using the advantage-GC cDNA PCR kit (Clontech, Palo Alto, Calif.). A HindIII/Pmel fragment from pCDNA4-sBACE1myc/His was blunt ended using Klenow and subcloned into the Stu I site of pFASTBACI(A) (Invitrogen). A sBACE1mycHis recombinant bacmid was generated by transposition in DH10Bac cells(GIBCO/BRL). Subsequently, the sBACE1mycHis bacmid construct was transfected into sf9 cells using CellFectin (Invitrogen, San Diego, Calif.) in order to generate recombinant baculovirus. […]
Proteins, were eluted from the Q-sepharose column with Buffer B (20 mM HEPES, pH 8.0, 500 mM NaCl). […] Peak protein fractions as determined by the Bradford Assay (Biorad, Calif.) were concentrated using a Centricon 30 concentrator (Millipore). sBACE1 purity was estimated to be ˜90% as assessed by SDS-PAGE and Commassie Blue staining. […]
IC50 determinations for inhibitors, (I), were determined by measuring the percent change of the relative fluorescence at 665 nm divided by the relative fluorescence at 620 nm, (665/620 ratio), in the presence of varying concentrations of I and a fixed concentration of enzyme and substrate. […]

T1 sequence (P56817 22-454): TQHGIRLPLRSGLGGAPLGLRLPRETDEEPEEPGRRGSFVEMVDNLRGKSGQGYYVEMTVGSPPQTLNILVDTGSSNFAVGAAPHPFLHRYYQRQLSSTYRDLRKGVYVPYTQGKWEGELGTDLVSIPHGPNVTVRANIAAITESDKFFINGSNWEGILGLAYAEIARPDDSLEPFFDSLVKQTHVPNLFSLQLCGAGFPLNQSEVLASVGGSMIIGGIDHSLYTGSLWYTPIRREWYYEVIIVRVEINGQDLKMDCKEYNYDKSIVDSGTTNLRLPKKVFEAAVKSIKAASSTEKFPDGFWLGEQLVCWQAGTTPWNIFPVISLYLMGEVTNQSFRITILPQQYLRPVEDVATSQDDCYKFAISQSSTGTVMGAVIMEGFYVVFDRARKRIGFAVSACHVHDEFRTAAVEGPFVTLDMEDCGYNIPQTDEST

IC50: 1 nM
Structure (SMILES): CCCCCN1CC(C(=O)NC(Cc2cc(F)cc(F)c2)[C@H](O)[C@@H]2NCCN(Cc3ccccc3)C2=O)N(Cc2ccccc2)C1=O (stereo partly shown) [Example 5FF]
